{
  "source": "patent US9476099B2",
  "about": "(TRUSTEES OF DARTMOUTH COLLEGE, priority 2012, dated 2016)",
  "system": "NT2/D1-R1 control and DNMT3B knockdown cells",
  "experiment": "Genome-wide expression analysis with PAM clusters, control and DNMT3B knockdown cells (Tables 8-14)",
  "conditions": "sh-3B + aza; 10 nM decitabine, 3 days",
  "note": "Where “and” joins values, the source holds several entries; their conditions need not be identical. Identical values can stand only once.",
  "data": [
    {"molecule": "Nc1ncn([C@H]2C[C@H](O)[C@@H](CO)O2)c(=O)n1", "note": "[aza]", "values": [
      {"measurement": "ADAMTSL2 NM_014694 expression Mean", "result": 202.775},
      {"measurement": "ADM NM_001124 expression Mean", "result": 446.451},
      {"measurement": "AFMID NM_0010109 expression Mean", "result": 172.091},
      {"measurement": "AHNAK NM_001620 expression Mean", "result": 254.833},
      {"measurement": "ANAPC13 NM_015391 expression Mean", "result": 377.446},
      {"measurement": "ANXA1 NM_000700 expression Mean", "result": 394.045},
      {"measurement": "ANXA2 NM_0010028 expression Mean", "result": 2283.3},
      {"measurement": "AW972815 expression Mean", "result": 584.452},
      {"measurement": "BAG3 NM_004281 expression Mean", "result": 816.89},
      {"measurement": "BCL11A NM_022893 expression Mean", "result": 345.798},
      {"measurement": "BIRC5 NM_001168 expression Mean", "result": 423.791},
      {"measurement": "BTG2 NM_006763 expression Mean", "result": 242.194},
      {"measurement": "C9orf6 NM_017832 expression Mean", "result": 227.753},
      {"measurement": "C10orf2 NM_021830 expression Mean", "result": 399.327},
      {"measurement": "C10orf58 NM_032333 expression Mean", "result": 578.039},
      {"measurement": "C16orf93 NM_0010149 expression Mean", "result": 214.657},
      {"measurement": "CA2 NM_000067 expression Mean", "result": 486.868},
      {"measurement": "CATSPER2 NM_172097 expression Mean", "result": 970.22},
      {"measurement": "CAV1 NM_001753 expression Mean", "result": 402.328},
      {"measurement": "CCND1 NM_053056 expression Mean", "result": 1996.23},
      {"measurement": "CDKN1A NM_000389 expression Mean", "result": 619.606},
      {"measurement": "CDX1 NM_001804 expression Mean", "result": 237.199},
      {"measurement": "CEACAM1 NM_0010249 expression Mean", "result": 156.04},
      {"measurement": "CIRH1A NM_032830 expression Mean", "result": 1424.13},
      {"measurement": "CLCF1 NM_013246 expression Mean", "result": 200.181},
      {"measurement": "CLDN10 NM_006984 expression Mean", "result": 222.057},
      {"measurement": "CNN3 NM_001839 expression Mean", "result": 732.909},
      {"measurement": "COL7A1 NM_000094 expression Mean", "result": 746.239},
      {"measurement": "COL17A1 NM_000494 expression Mean", "result": 230.283},
      {"measurement": "CRABP2 NM_001878 expression Mean", "result": 1011.8},
      {"measurement": "CRIPT NM_014171 expression Mean", "result": 325.647},
      {"measurement": "CTNNB1 NM_0010982 expression Mean", "result": 258.366},
      {"measurement": "CUEDC1 NM_017949 expression Mean", "result": 215.515},
      {"measurement": "CXCL14 NM_004887 expression Mean", "result": 194.723},
      {"measurement": "CXXC1 NM_014593 expression Mean", "result": 1121.15},
      {"measurement": "CXorf40A NM_178124 expression Mean", "result": 203.34},
      {"measurement": "CYR61 NM_001554 expression Mean", "result": 338.671},
      {"measurement": "DDX51 NM_175066 expression Mean", "result": 1008.46},
      {"measurement": "DIMT1L NM_014473 expression Mean", "result": 616.311},
      {"measurement": "DUSP5 NM_004419 expression Mean", "result": 1159.02},
      {"measurement": "EBI3 NM_005755 expression Mean", "result": 333.316},
      {"measurement": "EIF2C2 NM_012154 expression Mean", "result": 367.506},
      {"measurement": "ELF3 NM_004433 expression Mean", "result": 204.8},
      {"measurement": "ELF4 NM_001421 expression Mean", "result": 365.338},
      {"measurement": "EMILIN2 NM_032048 expression Mean", "result": 230.192},
      {"measurement": "EOMES NM_005442 expression Mean", "result": 289.321},
      {"measurement": "FAM53C NM_016605 expression Mean", "result": 1227.05},
      {"measurement": "FAM123B NM_152424 expression Mean", "result": 759.762},
      {"measurement": "FLJ40504 NM_173624 expression Mean", "result": 1376.6},
      {"measurement": "FOXO3 NM_201559 expression Mean", "result": 274.369},
      {"measurement": "GAD1 NM_000817 expression Mean", "result": 204.457},
      {"measurement": "GAD1 NM_013445 expression Mean", "result": 246.924},
      {"measurement": "GALNAC4S-6 NM_015892 expression Mean", "result": 540.521},
      {"measurement": "GEMIN4 NM_015721 expression Mean", "result": 784.75},
      {"measurement": "GLIPR2 NM_022343 expression Mean", "result": 227.407},
      {"measurement": "GNL3L NM_019067 expression Mean", "result": 289.661},
      {"measurement": "GNL3 NM_206826 expression Mean", "result": 1810.36},
      {"measurement": "GPATCH4 NM_182679 expression Mean", "result": 927.016},
      {"measurement": "GPER NM_0010399 expression Mean", "result": 176.693},
      {"measurement": "GPR56 NM_201524 expression Mean", "result": 189.936},
      {"measurement": "GPR56 NM_201525 expression Mean", "result": 205.229},
      {"measurement": "GPR177 NM_0010022 expression Mean", "result": "158.032 and 231.861"},
      {"measurement": "GPR177 NM_024911 expression Mean", "result": 239.092},
      {"measurement": "GTF3C6 NM_138408 expression Mean", "result": 454.993},
      {"measurement": "H2AFY NM_004893 expression Mean", "result": 843.815},
      {"measurement": "HARS NM_002109 expression Mean", "result": 1283.03},
      {"measurement": "HCLS1 NM_005335 expression Mean", "result": 494.474},
      {"measurement": "HES2 NM_019089 expression Mean", "result": 164.558},
      {"measurement": "HSPA1A NM_005346 expression Mean", "result": 348.731},
      {"measurement": "HSPA8 NM_006597 expression Mean", "result": 3799.27},
      {"measurement": "HSPA8 NM_153201 expression Mean", "result": 4636.48},
      {"measurement": "HSPH1 NM_006644 expression Mean", "result": 389.459},
      {"measurement": "ID3 NM_002167 expression Mean", "result": 1623.89},
      {"measurement": "IER3 NM_003897 expression Mean", "result": 406.859},
      {"measurement": "IL2RB NM_000878 expression Mean", "result": 175.269},
      {"measurement": "ITPRIP NM_033397 expression Mean", "result": 226.046},
      {"measurement": "JTV1 NM_006303 expression Mean", "result": 1336.75},
      {"measurement": "KAT2A NM_021078 expression Mean", "result": 704.033},
      {"measurement": "KIAA0101 NM_014736 expression Mean", "result": 230.187},
      {"measurement": "KRT8 NM_002273 expression Mean", "result": 2758.76},
      {"measurement": "LEFTY2 NM_003240 expression Mean", "result": 2484.87}
    ]}
  ]
}
